# Test results taken from patent US12600725B2 (Memorial Sloan-Kettering Cancer Center, priority 2013, dated 2026).
# What was measured:
# [1] = test system: HEK293 cells; experiment: Toxicity to HEK293 cells; type: cell-based, human
# [2] = test system: MKN74 cells; experiment: Cell viability assessment (CellTiter-Glo); type: cell-based
# [3] = test system: PANC-1 cells; experiment: Cell viability assessment (CellTiter-Glo); type: cell-based
# [4] = test system: EGFR overexpressing triple negative breast cancer cells; experiment: Apoptosis (Annexin V / 7AAD, cleaved PARP) in triple negative breast cancer cells; type: cell-based
# Protocol: The Grp94 inhibitors of the disclosure can be used to treat patients with EGFR overexpressing triple negative breast cancer. As shown in FIGS. 13a-c, EGFR overexpressing triple negative breast cancer cells are sensitive to the selective Grp94 inhibitor PU-WS13. The sensitivity of the EGFR overexpressing triple negative breast cancer cells was tested for the presence of apoptotic cells by Annexin V staining (13a, 13b) and by immunoblotting for the presence of cleaved PARP (13c). […] The Grp94 inhibitors of the disclosure can be used to treat patients with EGFR overexpressing pancreatic cancer. […]
# Cell fractionation and immunoblotting. […] Protein concentrations were determined using BCA kit (Pierce) according to the manufacturer's instructions. […]
# Cell cycle and apoptosis assessment. Cell cycle and apoptosis were assessed by flow cytometry after single staining with propidium iodide (PI, BD Pharmingen) or double staining with AnnexinV-FITC (BD Pharmingen) and 7AAD (BD Pharmingen), respectively. […] DNA content was measured by BD LSRII flow cytometer and cell further analyzed using program of cell cycle analysis in FloJo (Ashland, OR). […] Signals from FL1 and FL3 channels were collected by MACSQuant analyzer and further analyzed using FloJo. […]
# [5] = test system: downstream EGFR signaling in MDA-MB-468 tumors; experiment: PD analysis of tumors (Western blot); type: in vivo, mouse; conditions: 75 mg/kg ip
# Protocol: For this purpose we used mice bearing MDA-MB-468 tumors (a triple-negative breast tumor with EGFR-overexpression). Because of the specific affinity of the provided Grp94 inhibitors for tumor Grp94, we performed PK/PD studies that are tailored for this purpose. In this PK/PD study we incorporated two time points, a 2 h and a 24 h time of sacrifice post-administration. The early time point is incorporated to test the biodistribution of the agent to the site of its action, the tumor; PU-WS13 was readily distributed to tumor mass with -850 μM noted in tumor at 2 h versus 100 μM in the plasma (FIG. 25A). […] The concentration of PU-WS13 in the tumor at 24 h post-administration of single dose of 75 mg/kg was 0.5 μM. […] We also analyzed the potential suppression by PU-WS13 of normal Grp94 functions. A “housekeeping” function for Grp94 was identified using a conditional knock-out mouse model; that study found a role for Grp94 in normal GI cells, i.e. regulation of the Wnt receptor LRP6 (Liu et al., Proc Natl Acad Sci USA. 2013 Apr. 23; 110(17):6877-82). […]
# The other half of tumor tissues were evaluated for changes in EGFR and other PD markers as established in our laboratory. […] After quantifying the protein concentrations by BCA, 25-100ug proteins were loaded into SDS-PAGE and subjected to immunoblotting.
compound,measurement,setting,value
CC(C)NCCCn1c(Sc2cc(Cl)cc(Cl)c2)nc2c(N)ncnc21 [PU-WS13],toxicity to HEK293 cells,[1],not toxic
same,sensitivity to Grp94 inhibition,[2],not sensitive
same,effect on cell growth,[3],effectively inhibited the growth
same,"sensitivity (apoptosis, cleaved PARP)",[4],sensitive
same,PD effect in tumor (p-AKT and p-ERK inhibition),[5],partial suppression of downstream EGFR signaling
